Key:
circadian rhythm = details: disclosed in NPLs 4 and 5; cited from earlier work
[1] = system: Per 2 gene expression rhythm; test: Per 2 gene expression rhythm in Per2::LUC knock-in mouse-derived embryonic fibroblast line (luciferase chemiluminescence, LumiCycle); assay type: cell-based; details: Per2::LUC mouse embryonic fibroblasts; each substance at 10 μM; FIG. 4
Method: The cell line used was Per2::LUC knock-in mouse-derived embryonic fibroblast line. Per2::LUC knock-in mouse is a mouse in which the luciferase gene serving as a reporter is introduced downstream of the promoter region of the clock gene Per 2. Therefore, a Per 2::LUC knock-in mouse-derived embryonic fibroblast line expresses the luciferase gene along with periodic expression of the clock gene. When Per 2::LUC knock-in mouse-derived embryonic fibroblasts are cultured in a culture medium containing luciferin, a luciferase substrate, the cells produce chemiluminescence periodically; thus, by monitoring the chemiluminescence, the expression rhythm of the clock gene Per 2 can be evaluated.
At first, about 5×10^5 cells of the Per2::LUC knock-in mouse-derived embryonic fibroblast line were seeded onto 35 mm culture dishes, and then treated with 200 nM dexamethasone for 2 hours to thereby reset (tune) the biorhythm of the cells. […] While the cell culture was continued, the chemiluminescence of the reporter gene was measured real-time with a luminometer (LumiCycle; produced by Actimetrics) for one minute at a frequency of every 10 minutes, and the measurement was continued for 5 days. Amplitude and period length were calculated from the obtained waveform to evaluate the effect of the test substance, a 1:1 mixture of sesamin/episesamin. […]

| SMILES | circadian rhythm amplitude (circadian rhythm) | circadian rhythm period (circadian rhythm) | amplitude of Per 2 gene expression [1] |
| --- | --- | --- | --- |
| Cn1c(=O)c2c(ncn2C)n(C)c1=O [caffeine] | amplify circadian rhythm amplitude | lengthen circadian rhythm period |  |
| c1cc2c(cc1[C@H]1OC[C@H]3[C@@H]1CO[C@@H]3c1ccc3c(c1)OCO3)OCO2 [sesamin] |  |  | capable of increasing the amplitude |
| Oc1cc2c(cc1[C@H]1OC[C@H]3[C@@H]1CO[C@@H]3c1ccc3c(c1)OCO3)OCO2 [sesaminol] |  |  | capable of increasing the amplitude |
